Data reported in patent publication US6562838B2, “Treatment of cardiovascular disease with quinolinone enantiomers” (R. T. Alamo Ventures I, L.L.C., priority 2001, dated 2003).
“Also recorded” adds a separate entry of the source.

Key:
[1] = target: T1, PDE6 partially purified from bovine retinal rod and activated by trypsin (Bos taurus, UniProt P11541+P23439); experiment: PDE6 inhibition assay, Viagra vs racemic flosequinan (Example 1); assay type: biochemical
T1 construct: from tissue; host or cells: bovine retinal rod
T1 sequence (P11541 2-856 limits assumed): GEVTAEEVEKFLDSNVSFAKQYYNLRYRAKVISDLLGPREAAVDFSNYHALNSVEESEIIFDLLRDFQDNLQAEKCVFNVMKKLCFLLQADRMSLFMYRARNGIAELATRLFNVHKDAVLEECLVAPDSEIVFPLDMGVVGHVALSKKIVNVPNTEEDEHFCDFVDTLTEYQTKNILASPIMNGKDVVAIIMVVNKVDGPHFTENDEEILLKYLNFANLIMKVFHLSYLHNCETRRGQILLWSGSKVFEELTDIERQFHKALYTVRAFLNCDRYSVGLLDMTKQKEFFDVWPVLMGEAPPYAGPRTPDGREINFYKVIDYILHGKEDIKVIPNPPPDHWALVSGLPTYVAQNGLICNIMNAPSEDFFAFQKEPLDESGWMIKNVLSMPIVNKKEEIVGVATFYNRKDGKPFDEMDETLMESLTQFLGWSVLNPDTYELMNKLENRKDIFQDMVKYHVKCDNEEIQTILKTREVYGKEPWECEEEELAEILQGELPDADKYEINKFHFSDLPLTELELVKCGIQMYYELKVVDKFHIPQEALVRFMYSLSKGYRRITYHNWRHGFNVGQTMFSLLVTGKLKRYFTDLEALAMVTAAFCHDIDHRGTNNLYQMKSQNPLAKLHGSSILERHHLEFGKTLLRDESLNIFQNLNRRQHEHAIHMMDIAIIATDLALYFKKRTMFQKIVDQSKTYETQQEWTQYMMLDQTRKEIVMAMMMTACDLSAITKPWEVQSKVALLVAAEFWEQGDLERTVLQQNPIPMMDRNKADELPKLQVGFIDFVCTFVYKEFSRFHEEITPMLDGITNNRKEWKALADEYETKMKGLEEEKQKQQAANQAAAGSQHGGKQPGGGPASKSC
T1 sequence (P23439 2-850 limits assumed): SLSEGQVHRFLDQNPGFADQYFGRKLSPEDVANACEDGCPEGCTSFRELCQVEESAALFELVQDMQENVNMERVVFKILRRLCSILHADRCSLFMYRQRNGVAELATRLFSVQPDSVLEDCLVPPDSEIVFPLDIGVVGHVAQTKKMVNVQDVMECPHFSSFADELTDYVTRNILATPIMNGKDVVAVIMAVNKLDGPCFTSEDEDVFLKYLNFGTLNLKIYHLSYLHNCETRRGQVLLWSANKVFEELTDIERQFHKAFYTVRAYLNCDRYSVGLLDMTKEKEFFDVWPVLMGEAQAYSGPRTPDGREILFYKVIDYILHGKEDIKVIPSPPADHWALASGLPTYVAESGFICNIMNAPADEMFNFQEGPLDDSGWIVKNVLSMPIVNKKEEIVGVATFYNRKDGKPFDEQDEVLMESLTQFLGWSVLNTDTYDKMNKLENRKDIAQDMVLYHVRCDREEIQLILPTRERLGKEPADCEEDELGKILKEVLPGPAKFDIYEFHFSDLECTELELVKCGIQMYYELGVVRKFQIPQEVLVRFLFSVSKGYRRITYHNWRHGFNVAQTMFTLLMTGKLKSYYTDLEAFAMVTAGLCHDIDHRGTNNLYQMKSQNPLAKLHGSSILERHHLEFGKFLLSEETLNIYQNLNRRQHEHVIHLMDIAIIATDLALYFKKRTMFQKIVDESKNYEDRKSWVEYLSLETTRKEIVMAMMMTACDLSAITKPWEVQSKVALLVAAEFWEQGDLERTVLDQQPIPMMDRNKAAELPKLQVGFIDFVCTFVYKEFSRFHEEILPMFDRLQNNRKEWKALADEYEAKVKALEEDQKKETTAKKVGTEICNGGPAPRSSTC
Protocol: (§1) PDE6 partially purified from bovine retinal rod and activated by trypsin was used. In four separate reactions, Viagra at molar concentrations of 0.3 μM, 1.0 μM, and 3.0 μM, and a 100 μM racemic mixture of flosequinan were incubated with 0.2 μg/ml active PDE6 and 100 μM cGMP containing 0.1 μM [^3H]cGMP in Tris buffer pH 7.5 for 20 minutes at 30° C. Each reaction was terminated by raising the temperature to 100° C. for 2 minutes. The resulting GMP was converted to guanosine by addition of 10 mg/ml snake venom nucleotidase and further incubated at 30° C. for 10 minutes. Unhydrolyzed cGMP was bound to AGI-X2 resin, and [^3H]guanosine remaining in the aqueous phase was quantitated by scintillation counting.

[2] = tested on: phosphodiesterase III (PDE3); settings: Gristwood et al. 1992; Frodsham et al. 1992; cited from earlier work
[3] = Solubility; assay type: physicochemical
Excerpt: Thus, while the present invention is not limited by the form of oral administration, aqueous and organic solution of an enantiomer of flosequinan for oral administration is contemplated. Likewise, an enantiomer of flosequinan can be associated with a solid pharmaceutical carrier for solid oral administration (i.e., in pill form).

[4] = tested on: PDE4 partially purified from human U-937 pronocytic cells; experiment: PDE4 enzyme inhibition assay (Example 3); assay type: biochemical; settings: 100 μM
Protocol: (§2) In this example, a racemic mixture of flosequinan and the (+) and (−) enantiomers of flosequinan were subjected to biochemical enzyme assays to determine their respective percent inhibition of a variety of phosphodiesterases (PDE1-PDE6). The reaction conditions for each PDE assay were as follows.
(§3) PDE4 partially purified from human U-937 pronocytic cells was used. A racemic mixture of flosequinan, and each enantiomer of flosequinan, all at a molar concentration of 100 μM, were independently incubated with 20 μg PDE4 enzyme and 1 μM cAMP containing 0.01 μM [^3H]cAMP in Tris buffer pH 7.5 for 20 minutes at 30° C. The reaction was terminated by boiling for 2 minutes, and the resulting AMP was converted to adenosine by addition of 10 mg/ml snake venom nucleotidase and further incubation at 30° C. for 10 minutes. Unhydrolyzed cAMP was bound to AGI-X2 resin, and the remaining [^3H]adenosine in the aqueous phase was quantitated by scintillation counting.

[5] = target: T2, PDE3 partially purified from human platelets (Homo sapiens, UniProt Q14432); experiment: PDE3 enzyme inhibition assay (Example 3); assay type: biochemical; settings: for % Inhibition of PDE3: 100 μM
T2 construct: PDE3 partially purified from human platelets was used; from tissue; host or cells: human platelets
T2 sequence (Q14432 whole entry): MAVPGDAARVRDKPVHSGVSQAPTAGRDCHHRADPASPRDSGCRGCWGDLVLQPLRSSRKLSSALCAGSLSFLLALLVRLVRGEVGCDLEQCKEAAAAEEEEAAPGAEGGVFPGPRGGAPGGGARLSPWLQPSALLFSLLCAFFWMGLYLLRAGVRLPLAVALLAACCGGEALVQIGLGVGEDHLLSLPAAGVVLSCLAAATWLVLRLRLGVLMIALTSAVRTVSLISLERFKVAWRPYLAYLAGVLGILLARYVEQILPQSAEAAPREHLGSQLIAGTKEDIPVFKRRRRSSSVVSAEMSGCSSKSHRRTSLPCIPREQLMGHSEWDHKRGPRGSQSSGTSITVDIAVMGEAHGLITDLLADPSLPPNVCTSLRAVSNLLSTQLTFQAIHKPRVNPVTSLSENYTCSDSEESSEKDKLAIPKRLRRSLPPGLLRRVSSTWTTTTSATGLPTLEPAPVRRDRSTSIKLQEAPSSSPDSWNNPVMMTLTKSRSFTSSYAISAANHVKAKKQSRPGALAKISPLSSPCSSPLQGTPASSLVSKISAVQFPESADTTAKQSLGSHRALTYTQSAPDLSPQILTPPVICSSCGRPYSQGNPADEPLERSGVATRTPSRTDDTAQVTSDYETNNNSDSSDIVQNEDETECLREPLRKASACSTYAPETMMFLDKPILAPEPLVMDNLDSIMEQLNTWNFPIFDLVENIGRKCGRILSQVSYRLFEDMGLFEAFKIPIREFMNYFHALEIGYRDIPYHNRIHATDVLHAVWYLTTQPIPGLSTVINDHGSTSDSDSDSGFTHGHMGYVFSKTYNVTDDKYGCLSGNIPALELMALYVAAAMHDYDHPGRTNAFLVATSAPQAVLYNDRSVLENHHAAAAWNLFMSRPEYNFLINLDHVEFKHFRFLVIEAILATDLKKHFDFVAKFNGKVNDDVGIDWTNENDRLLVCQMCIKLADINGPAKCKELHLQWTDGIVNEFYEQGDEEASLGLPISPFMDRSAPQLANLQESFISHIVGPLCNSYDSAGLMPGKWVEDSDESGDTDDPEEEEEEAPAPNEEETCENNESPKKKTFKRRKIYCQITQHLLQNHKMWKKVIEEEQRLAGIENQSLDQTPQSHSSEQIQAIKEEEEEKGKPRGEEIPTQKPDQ
Protocol: as §2
as §3, with “PDE3 partially” for “PDE4 partially”, “human platelets” for “human U-937 pronocytic cells”, “with 13” for “with 20”, “μg PDE3” for “μg PDE4”

[6] = target: T3, PDE5 partially purified from human platelets (Homo sapiens, UniProt O76074); experiment: PDE5 enzyme inhibition assay (Example 3); assay type: biochemical; settings: 100 μM
T3 construct: PDE5 partially purified from human platelets was used; from tissue; host or cells: human platelets
Protocol: as §2
PDE5 partially purified from human platelets was used. A racemic mixture of flosequinan, and each enantiomer of flosequinan, all at a molar concentration of 100 μM, were independently incubated with 120 μg PDE5 enzyme and 1 μM cGMP containing 0.01 μM [^3H]cGMP in Tris buffer pH 7.5 for 20 minutes at 30° C. The reaction was terminated by boiling for 2 minutes, and the resulting GMP was converted to guanosine by addition of 10 mg/ml snake venom nucleotidase and further incubation at 30° C. for 10 minutes. Unhydrolyzed cGMP was bound to AGI-X2 resin, and the remaining [^3H]guanosine in the aqueous phase was quantitated by scintillation counting.

[7] = target: T4, PDE2 partially purified from human platelets (Homo sapiens, UniProt O00408); experiment: PDE2 enzyme inhibition assay (Example 3); assay type: biochemical; settings: 100 μM
T4 construct: PDE2 partially purified from human platelets was used; from tissue; host or cells: human platelets
T4 sequence (O00408 whole entry): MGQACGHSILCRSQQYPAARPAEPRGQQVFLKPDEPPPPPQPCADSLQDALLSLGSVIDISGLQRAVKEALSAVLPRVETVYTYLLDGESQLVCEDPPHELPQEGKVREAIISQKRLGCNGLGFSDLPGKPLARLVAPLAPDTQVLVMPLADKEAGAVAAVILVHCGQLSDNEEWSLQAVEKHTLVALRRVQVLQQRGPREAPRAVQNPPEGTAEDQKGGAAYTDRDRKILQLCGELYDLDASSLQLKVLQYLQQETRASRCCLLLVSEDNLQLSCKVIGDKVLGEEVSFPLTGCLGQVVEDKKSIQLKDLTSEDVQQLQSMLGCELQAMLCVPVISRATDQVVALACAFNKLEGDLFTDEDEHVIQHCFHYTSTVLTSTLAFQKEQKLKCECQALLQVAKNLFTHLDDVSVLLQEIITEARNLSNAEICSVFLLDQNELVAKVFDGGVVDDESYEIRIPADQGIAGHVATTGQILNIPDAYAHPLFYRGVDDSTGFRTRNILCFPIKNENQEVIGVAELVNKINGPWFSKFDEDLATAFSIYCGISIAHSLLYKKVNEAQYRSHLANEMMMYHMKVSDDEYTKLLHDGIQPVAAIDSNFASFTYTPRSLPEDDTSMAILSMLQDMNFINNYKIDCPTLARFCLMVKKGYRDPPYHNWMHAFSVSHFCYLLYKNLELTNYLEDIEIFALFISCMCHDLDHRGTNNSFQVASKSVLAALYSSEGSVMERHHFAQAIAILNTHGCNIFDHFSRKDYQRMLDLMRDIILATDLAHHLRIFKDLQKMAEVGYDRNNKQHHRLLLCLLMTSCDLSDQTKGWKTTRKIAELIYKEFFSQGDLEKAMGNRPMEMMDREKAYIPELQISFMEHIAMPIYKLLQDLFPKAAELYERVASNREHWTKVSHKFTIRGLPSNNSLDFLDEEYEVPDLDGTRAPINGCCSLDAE
Protocol: as §2
as §3, with “PDE2 partially” for “PDE4 partially”, “human platelets” for “human U-937 pronocytic cells”, “with 23” for “with 20”, “μg PDE2 enzyme, 25” for “μg PDE4 enzyme and 1”, “containing 0.05” for “containing 0.01”

[8] = target: T5, PDE1 partially purified from bovine heart (Bos taurus, UniProt P14100); experiment: PDE1 enzyme inhibition assay (Example 3); assay type: biochemical; settings: 100 μM
T5 construct: PDE1 partially purified from bovine heart was used; from tissue; host or cells: bovine heart
Protocol: as §2
as §3, with “PDE1 partially” for “PDE4 partially”, “from bovine heart” for “from human U-937 pronocytic cells”, “with 13” for “with 20”, “μg PDE1 enzyme, 1.0” for “μg PDE4 enzyme and 1 μM cAMP containing 0.01”, “[^3H]cAMP and CaCl2/calmodulin” for “[^3H]cAMP”

[9] = target: T1, PDE6 partially purified from bovine retinal rod and activated by trypsin; experiment: PDE6 enzyme inhibition assay (Example 3); assay type: biochemical; settings: 100 μM
Protocol: as §2
as §1, with “A” for “In four separate reactions, Viagra at molar concentrations of 0.3 μM, 1.0 μM, and 3.0 μM, and a 100 μM”, “flosequinan, and each enantiomer of flosequinan, all at a molar concentration of 100 μM,” for “flosequinan”, “were independently” for “were”, “boiling” for “raising the temperature to 100° C.”, “nucleotidase,” for “nucleotidase”

Cn1cc([S+](C)[O-])c(=O)c2ccc(F)cc21 (racemic) [Flosequinan, 7-fluoro-1-methyl-3-(methylsulphinyl)-4(1H)-quinolone]
inhibition of PDE6 compared to sildenafil citrate ([1]; 100 μM vs sildenafil citrate 1 μM (100-fold lower molar concentration)): approximately half as much inhibition of PDE6 | times more compound on a molar basis than Viagra for around 50% PDE6 inhibition ([1]; vs Viagra 0.3 μM): more than 300 times | reported phosphodiesterase selectivity [2]: selective inhibitor of phosphodiesterase III (PDE3) | solubility in organic solvents ([3]; organic solvents): soluble in many organic solvents | solubility in water ([3]; water): water soluble | % Inhibition of PDE4 [4]: 24%

Cn1cc([S@@+](C)[O-])c(=O)c2ccc(F)cc21 [(+)−flosequinan]
% Inhibition of PDE3 [5]: 32% | PDE3 inhibition compared to racemic mixture of flosequinan ([5]; same molar concentration): greater inhibition of PDE3 | PDE3 inhibition compared to the (−) enantiomer of flosequinan ([5]; same molar concentration, listed as (+) enantiomer of flosequinan): more PDE1 and PDE3 inhibitory activity; also recorded: eight-fold increase | % Inhibition of PDE5 [6]: 17% | % Inhibition of PDE2 [7]: 18% | % Inhibition of PDE1 [8]: 28% | PDE1 inhibitory activity compared with the (−) enantiomer of flosequinan [8]: more PDE1 and PDE3 inhibitory activity | % Inhibition of PDE6 [9]: 22% | % Inhibition of PDE4 [4]: 6%

Cn1cc([S+](C)[O-])c(=O)c2ccc(F)cc21 (stereo not drawn) [(−)−flosequinan]
% Inhibition of PDE3 [5]: 5% | % Inhibition of PDE5 [6]: 10% | % Inhibition of PDE2 [7]: 13% | % Inhibition of PDE1 [8]: 11% | % Inhibition of PDE6 [9]: 21% | % Inhibition of PDE4 [4]: 1%

Cn1cc(C(N)=O)c(=O)c2sccc21 [Example 4 b, 4-methyl-7-oxo-4,7-dihydrothieno[3,2-b]pyridine-6-carboxamide]
melting point: 255 to 258 °C

Cn1cc(C(N)=O)c(=O)c2ccc(Cl)cc21 [Example 4 e, 7-chloro-1-methyl-4-oxo-1,4-dihydroquinoline-3-carboxamide]
melting point: > 240 °C
